From ChEMBL document CHEMBL1201862, “PubChem BioAssay data set” (2004)
Calls of active or inactive are those of the source.

Assays:
[1] = HEp-2 cell cytotoxicity, dose response, cytotoxicity control for RSV inhibitor project, HTS (AID 2410); type: functional; details: human respiratory syncytial virus
cells [2] = assay: cells
[3] = biological target: T1, Heat shock factor protein 1 (Mus musculus, UniProt P38532); assay: inhibition of MG132-induced HSE-luciferase signal, confirmation, cell-based, NIH3T3, luminescence, dose retest (AID 2382); type: functional;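 note: NIH3T3 fibroblasts with HSF1-driven luciferase reporter stressed by proteasome inhibitor MG132; luminescence from HSF1-driven luciferase expression after 8 hours of MG132 stress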
T1 sequence (P38532 whole entry): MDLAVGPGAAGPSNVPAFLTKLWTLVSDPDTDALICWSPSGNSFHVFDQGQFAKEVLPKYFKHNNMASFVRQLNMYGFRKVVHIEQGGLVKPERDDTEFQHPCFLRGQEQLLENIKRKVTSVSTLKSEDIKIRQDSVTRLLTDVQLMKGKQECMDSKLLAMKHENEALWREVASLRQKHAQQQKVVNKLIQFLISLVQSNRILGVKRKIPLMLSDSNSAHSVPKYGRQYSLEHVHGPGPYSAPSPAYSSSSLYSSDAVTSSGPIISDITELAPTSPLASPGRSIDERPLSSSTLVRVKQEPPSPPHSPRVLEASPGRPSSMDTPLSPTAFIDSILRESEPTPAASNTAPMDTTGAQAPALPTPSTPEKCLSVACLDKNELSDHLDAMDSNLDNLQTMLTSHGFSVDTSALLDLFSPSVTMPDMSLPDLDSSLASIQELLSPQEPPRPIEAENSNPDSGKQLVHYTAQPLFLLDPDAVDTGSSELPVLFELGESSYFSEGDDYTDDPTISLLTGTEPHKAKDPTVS

[4] = A Cell Based Secondary Assay To Explore Cytotoxicity of Compounds that Sensitize Mycobacterium Tuberculosis to Beta-Lactam Antibiotics.; type: functional
CAAX prenyl protease 2 = biological target: T2, CAAX prenyl protease 2 (Saccharomyces cerevisiae S288c, UniProt Q03530); type: biochemical
T2 sequence (Q03530 whole entry): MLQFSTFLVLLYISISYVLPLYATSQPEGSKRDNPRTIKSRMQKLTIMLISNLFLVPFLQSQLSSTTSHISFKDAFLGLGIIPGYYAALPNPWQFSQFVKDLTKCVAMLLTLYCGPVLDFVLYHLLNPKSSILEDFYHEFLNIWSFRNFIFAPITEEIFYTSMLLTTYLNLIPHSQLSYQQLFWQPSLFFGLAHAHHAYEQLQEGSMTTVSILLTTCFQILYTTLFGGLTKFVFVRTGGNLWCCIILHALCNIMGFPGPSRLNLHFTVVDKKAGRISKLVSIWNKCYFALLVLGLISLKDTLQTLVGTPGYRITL

Mucolipin-3 = biological target: T3, Mucolipin-3 (Homo sapiens, UniProt Q8TDD5); assay: Dose response cell-based high-throughput screening assay for agonists of the transient receptor potential channel ML3 (TRPML3). [Related pubchem assays: 1526, 1424, 1448 ]; type: functional
T3 sequence (Q8TDD5 whole entry): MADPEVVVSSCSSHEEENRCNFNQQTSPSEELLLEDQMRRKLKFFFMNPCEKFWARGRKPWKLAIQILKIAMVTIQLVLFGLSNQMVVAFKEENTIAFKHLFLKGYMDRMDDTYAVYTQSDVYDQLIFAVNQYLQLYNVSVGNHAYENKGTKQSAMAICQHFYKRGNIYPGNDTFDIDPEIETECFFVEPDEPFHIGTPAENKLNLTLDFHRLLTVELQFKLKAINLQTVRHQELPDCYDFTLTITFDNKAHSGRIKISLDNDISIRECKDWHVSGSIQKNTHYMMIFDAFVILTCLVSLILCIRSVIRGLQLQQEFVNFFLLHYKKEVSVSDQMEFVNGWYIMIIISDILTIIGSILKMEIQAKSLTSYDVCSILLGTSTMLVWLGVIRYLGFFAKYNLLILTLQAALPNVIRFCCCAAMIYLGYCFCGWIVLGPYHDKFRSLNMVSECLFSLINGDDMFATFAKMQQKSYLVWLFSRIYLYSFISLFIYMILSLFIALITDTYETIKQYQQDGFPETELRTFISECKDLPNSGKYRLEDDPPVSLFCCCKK

Ion channel NompC = Ion channel NompC (Danio rerio, UniProt Q7T1G6); assay: Fluorescence counterscreen assay for TRPML3 agonists: dose response cell-based high-throughput screening assay to identify agonists of the transient receptor potential channel N1 (TRPN1). [Related pubchem assays: 1526, 1424, 1448 ]; type: functional
Cytochrome P450 2D6 = Cytochrome P450 2D6 (Homo sapiens, UniProt P10635);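 note: CYP2D6 member of a cytochrome P450 panel assay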
[5] = biological target: T4, Calpain-2 catalytic subunit (Sus scrofa, UniProt P43367); assay: pig calpain II inhibitor potency, dose response, biochemical, fluorogenic peptide substrate (AID 1420); type: functional
T4 sequence (P43367 whole entry): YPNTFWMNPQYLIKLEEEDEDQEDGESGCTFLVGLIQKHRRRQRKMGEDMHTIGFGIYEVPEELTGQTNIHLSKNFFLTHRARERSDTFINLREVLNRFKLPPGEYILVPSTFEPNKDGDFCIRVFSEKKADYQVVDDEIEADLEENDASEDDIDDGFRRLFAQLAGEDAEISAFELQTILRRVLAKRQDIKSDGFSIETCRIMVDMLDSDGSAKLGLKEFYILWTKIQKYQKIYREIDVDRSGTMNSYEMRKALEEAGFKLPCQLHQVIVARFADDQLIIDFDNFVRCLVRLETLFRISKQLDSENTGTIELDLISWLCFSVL

[6] = biological target: FAD-linked sulfhydryl oxidase ALR (Homo sapiens, UniProt P55789); assay: inhibitors of human ALR sulfhydryl oxidase, dose response, biochemical, H2O2 detection, luminescence, cherry-pick (AID 493248)
Leucine aminopeptidase = biological target: T5, Leucine aminopeptidase (Plasmodium falciparum 3D7, UniProt Q8IL11); assay: P. falciparum M17LAP inhibitors, primary screen, biochemical, fluorogenic H-Leu-NHMec substrate, 1536-well (AID 1619); type: functional
T5 sequence (Q8IL11 whole entry): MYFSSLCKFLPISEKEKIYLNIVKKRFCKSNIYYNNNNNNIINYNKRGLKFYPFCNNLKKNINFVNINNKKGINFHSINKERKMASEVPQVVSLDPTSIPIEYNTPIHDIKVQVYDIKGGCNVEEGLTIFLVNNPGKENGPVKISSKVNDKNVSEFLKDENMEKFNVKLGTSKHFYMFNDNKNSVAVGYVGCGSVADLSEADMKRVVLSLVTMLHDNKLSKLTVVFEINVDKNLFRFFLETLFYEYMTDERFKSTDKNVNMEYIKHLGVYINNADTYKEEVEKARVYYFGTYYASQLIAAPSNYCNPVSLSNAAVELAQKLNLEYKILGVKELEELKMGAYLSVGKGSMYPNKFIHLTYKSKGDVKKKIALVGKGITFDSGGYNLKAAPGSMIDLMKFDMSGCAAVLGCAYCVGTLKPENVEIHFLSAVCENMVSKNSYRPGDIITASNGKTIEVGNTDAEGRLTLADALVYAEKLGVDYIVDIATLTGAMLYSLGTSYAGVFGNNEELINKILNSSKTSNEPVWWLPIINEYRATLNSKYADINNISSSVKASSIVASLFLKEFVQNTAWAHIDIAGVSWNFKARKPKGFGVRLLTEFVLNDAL

[7] = cytotoxicity toward NIH3T3 fibroblasts, dose response, counter-screen, cell-based, ATP luminescence, mouse fibroblasts (AID 2010); type: functional;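 note: cells exposed to compound for about 90 hours before reading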
INS1 = assay: beta cell apoptosis inhibitors, cytokine rescue, dose response, luminescence, retest (AID 449756); type: functional, cell-based; details: Rattus norvegicus;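 note: cell death triggered by IL-1 beta plus TNF-alpha plus IFN-gamma mixture; protective hits raise ATP signal compared with cytokine alone wells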
[8] = inhibitors of intracellular T. cruzi replication, confirmation, NIH3T3 host cells, beta-gal luminescence (AID 2044); type: functional, cell-based;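 note: intracellular parasites grown in NIH/3T3 mouse fibroblasts as host cells; luminescent beta-galactosidase reporter signal from transgenic T. cruzi replicating inside host cells; inhibitors lower the luminescence signal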
[9] = biological target: T6, DNA repair protein RAD52 homolog (Homo sapiens, UniProt P43351); type: functional, biochemical
T6 sequence (P43351 whole entry): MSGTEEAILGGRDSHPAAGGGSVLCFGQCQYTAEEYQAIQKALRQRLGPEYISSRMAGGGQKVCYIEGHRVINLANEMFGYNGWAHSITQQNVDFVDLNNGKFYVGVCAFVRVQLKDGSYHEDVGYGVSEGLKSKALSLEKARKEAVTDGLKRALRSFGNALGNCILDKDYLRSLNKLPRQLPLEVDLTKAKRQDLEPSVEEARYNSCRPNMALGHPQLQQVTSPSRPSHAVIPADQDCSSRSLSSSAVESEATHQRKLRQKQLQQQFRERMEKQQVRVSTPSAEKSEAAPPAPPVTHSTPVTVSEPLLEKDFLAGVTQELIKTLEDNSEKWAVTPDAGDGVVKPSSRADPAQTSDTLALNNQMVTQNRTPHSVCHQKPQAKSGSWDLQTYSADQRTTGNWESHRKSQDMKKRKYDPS

[10] = biological target: T7, Ubiquitin-conjugating enzyme E2 N (Homo sapiens, UniProt P61088); type: functional;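 note: Dose-response confirmation in a TR-FRET assay detecting UBC13-driven polyubiquitin chain formation, inhibition measured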
T7 sequence (P61088 whole entry): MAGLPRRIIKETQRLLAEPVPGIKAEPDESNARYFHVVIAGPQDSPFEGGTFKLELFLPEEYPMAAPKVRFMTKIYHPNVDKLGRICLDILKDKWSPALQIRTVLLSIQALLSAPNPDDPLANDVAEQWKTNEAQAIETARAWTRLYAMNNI

Estrogen receptor = biological target: T8, Estrogen receptor (Homo sapiens, UniProt P03372);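 note: potency for inhibiting coactivator peptide recruitment to the receptor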
T8 sequence (P03372 whole entry): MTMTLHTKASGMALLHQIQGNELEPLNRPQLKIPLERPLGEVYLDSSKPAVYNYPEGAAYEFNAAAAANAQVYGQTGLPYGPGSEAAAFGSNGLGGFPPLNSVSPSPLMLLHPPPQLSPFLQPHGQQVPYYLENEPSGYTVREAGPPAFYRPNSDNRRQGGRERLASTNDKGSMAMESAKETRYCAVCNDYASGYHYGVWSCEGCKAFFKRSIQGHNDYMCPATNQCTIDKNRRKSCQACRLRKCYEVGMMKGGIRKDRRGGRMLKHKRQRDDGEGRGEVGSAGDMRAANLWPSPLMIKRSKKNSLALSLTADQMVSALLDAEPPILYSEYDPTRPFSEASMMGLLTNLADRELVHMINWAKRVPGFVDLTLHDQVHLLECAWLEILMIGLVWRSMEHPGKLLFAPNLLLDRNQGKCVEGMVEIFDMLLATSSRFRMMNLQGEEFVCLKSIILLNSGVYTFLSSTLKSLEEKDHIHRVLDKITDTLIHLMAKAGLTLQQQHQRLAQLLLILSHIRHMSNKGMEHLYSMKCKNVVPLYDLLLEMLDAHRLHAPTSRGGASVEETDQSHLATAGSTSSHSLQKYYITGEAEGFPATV

cells [11] = type: functional
[12] = cytotoxicity in KRAS-transformed pancreatic duct cells, primary screen, cell-based, fluorescence, HTS (AID 431); type: functional; details: Homo sapiens;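 note: cell line used: HPDE-C7K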
[13] = cytotoxicity in HPDE-C7 cells, cell-based, fluorescence, HTS (AID 430); type: functional; details: Homo sapiens
[14] = THP-1 cell cytotoxicity, dose response, cytotoxicity control for non-replicating M. tuberculosis project (AID 489025); type: functional
H9c2 = assay: cells; type: functional, cell-based; details: Rattus norvegicus, H9c2, Myocardium

Ion channel NompC, sequence (Q7T1G6 whole entry): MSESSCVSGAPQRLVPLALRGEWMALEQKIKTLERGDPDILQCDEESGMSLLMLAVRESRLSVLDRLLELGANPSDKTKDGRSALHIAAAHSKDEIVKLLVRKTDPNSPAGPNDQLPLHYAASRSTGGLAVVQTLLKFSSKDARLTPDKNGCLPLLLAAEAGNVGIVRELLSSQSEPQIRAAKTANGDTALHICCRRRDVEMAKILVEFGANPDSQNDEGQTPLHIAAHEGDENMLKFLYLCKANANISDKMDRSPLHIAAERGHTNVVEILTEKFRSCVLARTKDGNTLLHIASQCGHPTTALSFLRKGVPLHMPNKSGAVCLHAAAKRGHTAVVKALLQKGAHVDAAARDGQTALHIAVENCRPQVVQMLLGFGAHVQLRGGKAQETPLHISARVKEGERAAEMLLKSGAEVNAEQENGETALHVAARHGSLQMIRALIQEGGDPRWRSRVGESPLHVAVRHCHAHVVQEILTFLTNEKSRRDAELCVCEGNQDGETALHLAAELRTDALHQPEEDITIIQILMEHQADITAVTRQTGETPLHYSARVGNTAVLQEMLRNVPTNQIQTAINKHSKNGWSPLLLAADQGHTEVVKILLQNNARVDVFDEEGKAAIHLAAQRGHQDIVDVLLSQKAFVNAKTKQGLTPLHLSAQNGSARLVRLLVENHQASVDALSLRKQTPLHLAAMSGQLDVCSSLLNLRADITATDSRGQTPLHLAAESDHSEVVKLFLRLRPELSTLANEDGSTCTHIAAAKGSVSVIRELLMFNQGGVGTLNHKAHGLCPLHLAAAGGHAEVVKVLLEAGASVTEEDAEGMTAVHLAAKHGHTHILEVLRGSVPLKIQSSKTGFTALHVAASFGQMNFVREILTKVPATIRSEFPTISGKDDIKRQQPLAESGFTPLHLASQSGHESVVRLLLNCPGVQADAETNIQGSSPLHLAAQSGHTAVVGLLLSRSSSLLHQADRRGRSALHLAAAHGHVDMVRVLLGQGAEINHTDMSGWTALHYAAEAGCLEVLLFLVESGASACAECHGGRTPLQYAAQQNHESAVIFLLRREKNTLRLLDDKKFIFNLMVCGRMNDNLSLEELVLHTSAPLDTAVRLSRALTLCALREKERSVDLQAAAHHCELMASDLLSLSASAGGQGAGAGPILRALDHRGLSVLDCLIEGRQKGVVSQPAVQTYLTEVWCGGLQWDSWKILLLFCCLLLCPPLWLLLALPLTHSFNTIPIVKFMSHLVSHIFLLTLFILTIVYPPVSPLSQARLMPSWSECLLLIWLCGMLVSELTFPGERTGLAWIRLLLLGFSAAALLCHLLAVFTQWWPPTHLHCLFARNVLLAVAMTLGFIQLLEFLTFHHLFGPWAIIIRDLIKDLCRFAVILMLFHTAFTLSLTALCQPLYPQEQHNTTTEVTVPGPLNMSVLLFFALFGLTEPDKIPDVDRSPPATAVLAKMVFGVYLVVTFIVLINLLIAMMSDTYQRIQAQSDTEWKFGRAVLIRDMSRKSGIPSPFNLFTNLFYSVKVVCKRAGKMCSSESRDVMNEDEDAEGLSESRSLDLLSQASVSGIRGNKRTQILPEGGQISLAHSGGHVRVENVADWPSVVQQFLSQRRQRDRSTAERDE
Cytochrome P450 2D6, sequence (P10635 whole entry): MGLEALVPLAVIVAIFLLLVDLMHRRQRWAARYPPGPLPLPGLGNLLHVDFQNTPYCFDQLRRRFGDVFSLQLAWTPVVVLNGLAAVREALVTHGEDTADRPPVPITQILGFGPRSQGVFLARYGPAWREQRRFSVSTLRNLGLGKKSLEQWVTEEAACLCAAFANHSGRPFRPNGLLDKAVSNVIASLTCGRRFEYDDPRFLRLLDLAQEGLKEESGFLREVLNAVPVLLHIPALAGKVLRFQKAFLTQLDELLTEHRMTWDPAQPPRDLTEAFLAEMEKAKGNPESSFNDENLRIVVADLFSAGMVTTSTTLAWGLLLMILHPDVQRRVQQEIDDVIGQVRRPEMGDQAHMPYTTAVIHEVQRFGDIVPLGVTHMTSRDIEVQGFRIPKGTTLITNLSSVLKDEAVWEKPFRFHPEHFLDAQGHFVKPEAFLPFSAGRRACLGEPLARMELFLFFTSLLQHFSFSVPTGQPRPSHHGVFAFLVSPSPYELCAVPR
FAD-linked sulfhydryl oxidase ALR, sequence (P55789 whole entry): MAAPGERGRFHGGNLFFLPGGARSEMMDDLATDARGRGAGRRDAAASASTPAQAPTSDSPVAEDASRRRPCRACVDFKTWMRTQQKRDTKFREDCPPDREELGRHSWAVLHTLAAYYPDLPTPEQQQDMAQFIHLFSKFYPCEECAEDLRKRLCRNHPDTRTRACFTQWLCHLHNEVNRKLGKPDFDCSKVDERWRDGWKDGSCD

## Cc1cccc(C)c1-n1c(C)cc(/C=C2\NC(=O)NC2=O)c1C
[1]
  CC50: 24.6 µM (active)
Cells [2]
  IC50: 8.7 µM (active)
[3]
  EC50: > 195 µM (not active)

## O=C(CCNc1ccc(F)cc1)c1cccc([N+](=O)[O-])c1
[4]
  CC50: > 40 µM (active)

## COc1ccc(-n2nc(C(=O)NCC(=O)N(C)Cc3ccccc3)c3ccccc3c2=O)cc1
CAAX prenyl protease 2
  AC50: 70.8 µM (active)

## COc1ccc(OC)c(S(=O)(=O)N2CCCc3ccccc32)c1
Mucolipin-3
  EC50: 3.58 µM (active)
Ion channel NompC
  EC50: > 29.9 µM (not active)

## O=C(CN1CCN(S(=O)(=O)c2ccc(F)cc2)CC1)Nc1ccc(Cl)c(C(F)(F)F)c1
Mucolipin-3
  EC50: 3.5 µM (active)
Cytochrome P450 2D6
  AC50: 39.8 µM (inconclusive)
[1]
  CC50: 4.99 µM (active)
Ion channel NompC
  EC50: > 29.9 µM (not active)

## O=S(=O)(N1CCCCC1)N1CCN(c2cc(Cl)ccc2Cl)CC1
Mucolipin-3
  EC50: 2.07 µM (active)
[5]
  IC50: 4.07 µM (not active)
Ion channel NompC
  EC50: > 29.9 µM (not active)

## O=S(=O)(c1ccccc1)N1CCC(c2nc(O)c3nnn(Cc4ccc5c(c4)OCCO5)c3n2)CC1
[1]
  CC50: 28.4 µM (active)
Cells [2]
  IC50: 18.4 µM (active)

## Cc1cc(C)c(S(=O)(=O)c2c(C)cccc2C)c(OCC(C)C)n1
Mucolipin-3
  EC50: 4.35 µM (active)
Ion channel NompC
  EC50: > 29.9 µM (not active)

## Cc1[nH]c2ccccc2c1N=Nc1cccc(C(=O)O)c1
[6]
  AC50: 0.663 µM (active)
Leucine aminopeptidase
  IC50: 80.8 µM (active)

## Cc1ccc(C(=O)N/C(=C\c2ccc(-c3ccc(Cl)cc3)o2)C(=O)NCCCN(C)C)cc1
[7]
  EC50: > 30 µM (not active)
INS1
  AC50: 7.74 µM (active)
[8]
  EC50: 1.63 µM (active)
[9]
  AC50: 18.5 µM (active)
[10]
  IC50: > 20 µM (inactive)
[4]
  CC50: 11.2 µM (active)

## COc1ccc(C)cc1-n1nnnc1SCC(=O)NC(=O)NCc1ccco1
Estrogen receptor
  IC50: 9.48 µM (active)

## CC(CN1CCOCC1)OC(=O)c1ccc(Br)cc1 (stereo unspecified)
Cells [11]
  IC50: 5.68 µM (active)
[12]
  EC50: 9.11 µM (active)
[13]
  EC50: 6.73 µM (active)
[14]
  CC50: 38.2 µM (active)

## COc1ccc(Br)cc1/C=N/NC(=O)CNC(=O)/C=C/c1ccccc1
[4]
  CC50: 32.1 µM (active)
H9c2
  IC50: 15.3 µM (active)

## CC1CCN(Cc2c(C(=O)N/N=C/c3cccc(C(F)(F)F)c3)nnn2-c2nonc2N)CC1
CAAX prenyl protease 2
  AC50: 0.254 µM (active)

## O=C(N/N=C/c1ccccc1C(=O)O)c1ccc(COc2cccc3cccnc23)cc1
Leucine aminopeptidase
  IC50: 18.4 µM (active)

## C/C(N)=C(/C#N)C(=O)COC(=O)c1cccc(C)c1O
Cells [2]
  IC50: 9.45 µM (active)
